What all share (assay): BRET assay using TRUPATH biosensors, Gi activation of ADGRF1
Holding throughout (format): cell-based

The target of assay [1] is T1, ADGRF1 (Homo sapiens, UniProt Q5T601, F641A).
T1 construct: Flag (N); expressed in transfected cells; host or cells: HEK293F
Particulars: ADGRF1 F641^2.64bA. The procedure, abridged: (§1)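 HEK293F cells transiently co-transfected with wild-type or mutant receptor, Gα-RLuc8 (GαsS for Gs, Gαi1 for Gi), Gβ3 and Gγ9-GFP2 at 2:1:1:1. After 30 min at 37 °C and coelenterazine 400a, cells stimulated with synthetic stalk peptide. BRET = GFP2/RLuc8 emission, last of five readings.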

Assay [2] addresses T2, ADGRF1 (Homo sapiens, UniProt Q5T601, L593A).
T2 construct: Flag (N); expressed in transfected cells; host or cells: HEK293F
Particulars: ADGRF1 L593^1.47bA. An outline of the steps:
as §1

Assay [3] addresses T3, ADGRF1 (Homo sapiens, UniProt Q5T601, L678A).
T3 construct: Flag (N); expressed in transfected cells; host or cells: HEK293F
The conditions noted are these: ADGRF1 L678^3.50bA. The procedure, abridged:
as §1

The target of assay [4] is T4, ADGRF1 (Homo sapiens, UniProt Q5T601, L681E).
T4 construct: Flag (N); expressed in transfected cells; host or cells: HEK293F
T4 sequence (Q5T601 20-910 L681E): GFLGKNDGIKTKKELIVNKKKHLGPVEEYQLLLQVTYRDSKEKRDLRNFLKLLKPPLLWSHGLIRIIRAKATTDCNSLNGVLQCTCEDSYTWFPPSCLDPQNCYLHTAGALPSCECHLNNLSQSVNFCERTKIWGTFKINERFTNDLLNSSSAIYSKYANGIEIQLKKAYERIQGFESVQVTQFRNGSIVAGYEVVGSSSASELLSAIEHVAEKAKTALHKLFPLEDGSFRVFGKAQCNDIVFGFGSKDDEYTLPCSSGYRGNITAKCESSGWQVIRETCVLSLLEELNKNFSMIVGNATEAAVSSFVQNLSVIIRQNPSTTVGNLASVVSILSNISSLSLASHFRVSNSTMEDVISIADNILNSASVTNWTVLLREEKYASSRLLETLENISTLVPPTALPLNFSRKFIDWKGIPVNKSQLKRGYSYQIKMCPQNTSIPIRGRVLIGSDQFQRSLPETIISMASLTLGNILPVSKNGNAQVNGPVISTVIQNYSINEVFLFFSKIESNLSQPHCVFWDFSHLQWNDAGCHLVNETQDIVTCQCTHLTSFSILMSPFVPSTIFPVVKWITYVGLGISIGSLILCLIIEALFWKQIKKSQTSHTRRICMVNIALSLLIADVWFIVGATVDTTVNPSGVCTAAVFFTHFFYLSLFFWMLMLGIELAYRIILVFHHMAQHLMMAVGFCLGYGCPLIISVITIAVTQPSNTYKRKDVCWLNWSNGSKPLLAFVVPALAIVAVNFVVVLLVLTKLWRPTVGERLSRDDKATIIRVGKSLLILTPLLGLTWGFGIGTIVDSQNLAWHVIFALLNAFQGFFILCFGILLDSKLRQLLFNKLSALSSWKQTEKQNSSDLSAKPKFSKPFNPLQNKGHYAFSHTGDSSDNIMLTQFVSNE
Particulars: ADGRF1 L681^3.53bE. An outline of the steps:
as §1

Assay [5] has as its target T5, ADGRF1 (Homo sapiens, UniProt Q5T601, L681H).
T5 construct: Flag (N); expressed in transfected cells; host or cells: HEK293F
The conditions noted are these: ADGRF1 L681^3.53bH. An outline of the steps: as §1

The target of assay [6] is T6, ADGRF1 (Homo sapiens, UniProt Q5T601, L799A).
T6 construct: Flag (N); expressed in transfected cells; host or cells: HEK293F
T6 sequence (Q5T601 20-910 L799A): as the sequence (Q5T601 20-910 L681E) above, with E662L, L780A counted along it
Particulars: ADGRF1 L799^6.48bA. The procedure, abridged: as §1

In assay [7] the target is T7, ADGRF1 (Homo sapiens, UniProt Q5T601, N827A).
T7 construct: Flag (N); expressed in transfected cells; host or cells: HEK293F
T7 sequence (Q5T601 20-910 N827A): as the sequence (Q5T601 20-910 L681E) above, with E662L, N808A counted along it
The conditions noted are these: ADGRF1 N827^7.46bA. The procedure, abridged: as §1

The target of assay [8] is T8, ADGRF1 (Homo sapiens, UniProt Q5T601, R623A).
T8 construct: Flag (N); expressed in transfected cells; host or cells: HEK293F
T8 sequence (Q5T601 20-910 R623A): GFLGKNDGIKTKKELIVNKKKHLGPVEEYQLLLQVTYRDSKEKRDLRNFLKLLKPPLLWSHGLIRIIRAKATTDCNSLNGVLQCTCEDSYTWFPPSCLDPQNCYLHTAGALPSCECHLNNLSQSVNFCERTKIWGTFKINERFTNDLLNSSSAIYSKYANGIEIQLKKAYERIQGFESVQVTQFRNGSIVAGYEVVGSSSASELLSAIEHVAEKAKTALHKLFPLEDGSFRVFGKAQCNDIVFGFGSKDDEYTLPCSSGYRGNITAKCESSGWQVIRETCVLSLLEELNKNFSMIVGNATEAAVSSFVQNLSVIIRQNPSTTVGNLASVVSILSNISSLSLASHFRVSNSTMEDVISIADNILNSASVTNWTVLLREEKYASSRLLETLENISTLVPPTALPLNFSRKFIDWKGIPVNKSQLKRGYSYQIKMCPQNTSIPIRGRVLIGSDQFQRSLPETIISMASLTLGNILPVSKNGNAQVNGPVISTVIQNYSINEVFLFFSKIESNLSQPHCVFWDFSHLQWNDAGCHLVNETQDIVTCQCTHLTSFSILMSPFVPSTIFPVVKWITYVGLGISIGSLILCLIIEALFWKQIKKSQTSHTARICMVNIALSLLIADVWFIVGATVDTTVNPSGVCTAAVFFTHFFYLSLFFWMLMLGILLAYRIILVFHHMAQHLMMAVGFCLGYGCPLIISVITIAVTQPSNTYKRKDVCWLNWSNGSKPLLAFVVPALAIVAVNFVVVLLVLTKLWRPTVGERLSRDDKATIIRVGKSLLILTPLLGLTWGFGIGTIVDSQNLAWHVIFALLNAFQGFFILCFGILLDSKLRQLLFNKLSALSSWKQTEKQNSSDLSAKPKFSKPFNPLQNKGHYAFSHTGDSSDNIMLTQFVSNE
The conditions noted are these: ADGRF1 R623^2.46bA. An outline of the steps:
as §1

Where [9] appears, read: n = 3, read-out: pEC50 (mean ± s.e.m.) (converted).

Ends that are not written are not given here.

T1 sequence (Q5T601 20-910 F641A): as the sequence (Q5T601 20-910 L681E) above, with F622A, E662L counted along it
T3 sequence (Q5T601 20-910 L678A): as the sequence (Q5T601 20-910 L681E) above, with L659A, E662L counted along it
T5 sequence (Q5T601 20-910 L681H): as the sequence (Q5T601 20-910 L681E) above, with E662H counted along it
T2 sequence (Q5T601 20-910 L593A): as the sequence (Q5T601 20-910 L681E) above, with L574A, E662L counted along it

Consider TSFSILMSPFVP [pF1], for which the “Emax (mean ± s.e.m.)” value was 82 ± 15 % of WT on ADGRF1 [1] (n = 3); 106 ± 11 % of WT on ADGRF1 [2] (n = 3); 58 ± 7 % of WT on ADGRF1 [3] (n = 3); 130 ± 12 % of WT at ADGRF1 [4] (n = 3); 103 ± 13 % of WT on ADGRF1 [5] (n = 4); 109 ± 11 % of WT on ADGRF1 [6] (n = 3). In addition, the entries for the “Emax (mean ± s.e.m.)” value at ADGRF1 [7] (n = 3) and on ADGRF1 [8] (n = 3) were 122 ± 13 % of WT and 120 ± 8 % of WT, respectively. Also, the EC50 is 204 nM at ADGRF1 [1] (setting [9]); 562 nM at ADGRF1 [2] (setting [9]); 129 nM at ADGRF1 [3] (setting [9]); 794 nM at ADGRF1 [4] (setting [9]); 347 nM at ADGRF1 [5] (n = 4, read-out: pEC50 (mean ± s.e.m.) (converted)); 380 nM at ADGRF1 [6] (setting [9]). Besides, the EC50 on ADGRF1 [7] (setting [9]) is 389 nM; on ADGRF1 [8] (setting [9]), 447 nM.
